This note sets out measurements from patent US20250179126A1, “A NOVEL PEPTIDE FROM A PHOTOSYNTHETIC BACERIUM DIRECTLY TARGETS MITOCHONDRIA TO TRIGGER APOPTOSIS IN ADVANCED PROSTATE CANCER CELLS” (priority 2022, published 2025).

What all share (assay type): cell-based, human
Series [1] deals with PC3 cells. Nature of the series: Annexin-V apoptosis assay by flow cytometry, PC3. The settings on record: PC3, 48 hr; Ptxl 1 nM, p28 50 μM, aurA/aurB 0.5-50 μM. As for the experimental part: (§1) FIG. 7A-7D: Determination of apoptotic cell death. Prostate cancer cell lines (7A: LNCaP, 7B: DU145 and 7C: PC3) and normal prostate CRL11611 cells (7D) were exposed to the indicated agents for 48 hr and stained using apoptosis assay kits according to the manufacturer's instructions. The samples were analyzed by flow cytometry. Mean±SE (N=3).
(§2) After 48 hr, annexin-V apoptosis assays (Thermo Fisher Scientific) were conducted to detect apoptotic cells. At least 10,000 cells in each case were analyzed by FACS (RRC, UIC).

The subject of series [2] is normal prostate cells CRL11611. Nature of the series: MTT cell viability assay, normal prostate CRL11611 cells. The settings on record: normal prostate CRL11611 (p53+, AR+), 24-72 hr; paclitaxel 1 nM. The text has this: FIG. 4A-4D: Effect of peptides on prostate cancer cell lines with differences in p53 and AR expression status. […] Control (PBS)-treated cells were considered to have 100% viability. Mean±SE (N=3).
Cell lines and culture: Human cancer and noncancer (immortalized and nonimmortalized) cell lines were obtained from the American Type Culture Collection [prostate cancer (PC3, DU145 and LNCaP), normal prostate (CRL11611), breast cancer (MCF-7), ovarian cancer (SK-OV3 adenocarcinoma), lung cancer (A549)]. MDD2 breast cancer cells (p53 dominant-negative) were provided courtesy of Dr Andrei V. Gudkov, Roswell Park Cancer Institute. 20 All cell lines were cultured in MEM-E (Invitrogen) supplemented with 10% heat-inactivated fetal bovine serum (Atlanta Biological, Inc.), 100 units/mL penicillin, and 100 μg/mL streptomycin at 37° C. in 5% CO2.
Cytotoxicity assay: The MTT assay was performed as we previously described (Cha et al., Cancer Research 2020, 80: 1615-1623).

The test system of another series is DU145 cells. Nature of the series: Annexin-V apoptosis assay by flow cytometry, DU145. The settings on record: DU145, 48 hr; Ptxl 1 nM, p28 50 μM, aurA/aurB 0.5-50 μM. As for the experimental part:
as §1, §2

The test system of series [3] is PC3 cells. Nature of the series: JC-1 mitochondrial membrane potential assay. As for the experimental part:
Cells were stained by using JC-1 Mitochondrial Membrane Potential Assay Kits according to the manufacturer's instructions to measure mitochondrial membrane potential, and fluorescence was measured by flow cytometry. 9B, Caspase-3 is involved in aurB-induced apoptosis. […] The inhibitor was used at the indicated concentrations. Mean±SE (N=3).
JC-1 dye (Invitrogen) was used to determine mitochondrial membrane potential. […] After washing with PBS, trypsinized PC3 cells were incubated with JC-1 dye and analyzed by FACS.

For another series, the system named is MDA-MB-231 cells. Nature of the series: Aldolase A secretion and expression in MDA-MB-231 cells treated with purified azurin. Particulars: MDA-MB-231, purified azurin 100 nM, 10 μM, 1 mM, 30 min. As for the experimental part: FIG. 18A-18G: Induction of aldolase A secretion by host cells in the presence of P. aeruginosa. 18A. […] Aldolase secretion varied between the co-cultures with cancer and normal cells. […] 18B Correlation between the aldolase A and azurin levels in co-cultures of P. aeruginosa with cancer or normal cells. […] Secretion of aldolase into the culture supernatant was assessed by western blot analysis. 18D P. aeruginosa (OD=0.3) was treated with purified aldolase A protein at concentrations of 1 nM, 10 nM, 100 nM, and 1 μM for 30 min. […] MDA-MB-231 (18E) and Mel-2 (18F) cells were treated with purified azurin protein at concentrations of 100 nM, 10 μM, and 1 mM for 30 min. […] 18G Aldolase A secretion in the presence of P. aeruginosa is distance-dependent. […]
Aldolase A gene expression in MDA-MB-231 (black bars) and Mel-2 (white bars) cells was determined by RT-PCR (22A). […] 22B: Intracellular levels of aldolase A were assessed by western blot analysis with an anti-aldolase A antibody. […]
Western blotting: After running the NuPAGE, proteins were transferred to PVDF membranes (BioRad Laboratories Inc, Hercules, CA) which were blocked in SuperBlock (T20 TBS buffer, Thermo Fisher) for one hour. […] The signal was detected using enhanced chemiluminescence (ECL, Thermo Fisher Scientific). Quantitative analysis of the bands was performed with a computer-assisted imaging densitometer (UN-SCAN-IT gel version 5.1). […]

For the substance “LVN GGD DVA AAV NTA AQN NAD ALF VPPP (LVNGGDDVAAAVNTAAQNNADALFVPPP) [aurB]”, the apoptotic cell death entry in the series with PC3 cells [1] and with DU145 cells was “induced significant dose-dependent apoptosis” each time. The “cytotoxic effect (MTT cell viability)” value in series [2] is given as “not evident”. Also, the “change of mitochondrial membrane potential (JC-1)” value with PC3 cells [3] (PC3, 1 μM) was determined as 17%; in the series on PC3 cells [3] (PC3, 10 μM), 21%; with PC3 cells [3] (PC3, 100 μM) it was 32%. Besides, the “effect on mitochondrial membrane potential (JC-1)” value with PC3 cells [3] (PC3, 1, 10 and 100 μM) is on record as “dose-dependently increased”.
As to “azurin: 14 kDa periplasmic copper protein of 128 amino acids from P. aeruginosa; purified recombinant”, in the series on MDA-MB-231 cells, the “aldolase A gene expression and intracellular levels” value was “without increasing gene expression or intracellular levels of aldolase A”; the “aldolase A secretion into culture medium (western blot)” value is recorded as “secreted a considerable amount of human aldolase A”.
